Assay results published in ChEMBL document CHEMBL4033800, “Further Developments of the Phenyl-Pyrrolyl Pentane Series of Nonsteroidal Vitamin D Receptor Modulators as Anticancer Agents” (J Med Chem, 2018).

Legend:
MCF7 [1] = test: Antiproliferative activity against human MCF7 cells after 48 hrs by MTT assay; assay type: functional, cell-based; conditions: MCF7, 48 h
L02 = test: Antiproliferative activity against human L02 cells after 48 hrs by MTT assay; assay type: cell-based; conditions: L02, 48 h
PC-3 = test: Antiproliferative activity against human PC3 cells after 48 hrs by MTT assay; assay type: functional, cell-based; conditions: PC-3, 48 h
Caco-2 = test: Antiproliferative activity against human Caco2 cells after 48 hrs by MTT assay; assay type: functional, cell-based; conditions: Caco-2, 48 h
HepG2 = test: Antiproliferative activity against human HepG2 cells after 48 hrs by MTT assay; assay type: functional, cell-based; conditions: HepG2, 48 h
MCF7 [2] = test: Induction of apoptosis in human MCF7 cells assessed as late apoptotic cells at 1 uM after 24 hrs by Annexin V-FITC/propidium iodide-staining based flow cytometry (reference value: 0.062%); assay type: functional
MCF7 [3] = test: Induction of apoptosis in human MCF7 cells assessed as early apoptotic cells at 1 uM after 24 hrs by Annexin V-FITC/propidium iodide-staining based flow cytometry (reference value: 1.74%); assay type: functional
MCF7 [4] = test: Induction of apoptosis in human MCF7 cells assessed as necrotic cells at 1 uM after 24 hrs by Annexin V-FITC/propidium iodide-staining based flow cytometry (reference value: 0.031%); assay type: functional
MCF7 [5] = test: Induction of cell cycle arrest in human MCF7 cells assessed as accumulation at S phase at 1 uM after 24 hrs by propidium iodide-staining based flow cytometry (reference value: 31.55%); assay type: functional
MCF7 [6] = test: Induction of apoptosis in human MCF7 cells assessed as viable cells at 1 uM after 24 hrs by Annexin V-FITC/propidium iodide-staining based flow cytometry (reference value: 98.2%); assay type: functional; conditions: MCF7, 24 h, read-out: Activity
MCF7 [7] = test: Induction of cell cycle arrest in human MCF7 cells assessed as accumulation at G0/G1 phase at 1 uM after 24 hrs by propidium iodide-staining based flow cytometry (reference value: 56.03%); assay type: functional
MCF7 [8] = test: Induction of cell cycle arrest in human MCF7 cells assessed as accumulation at G2/M phase at 1 uM after 24 hrs by propidium iodide-staining based flow cytometry (reference value: 12.41%); assay type: functional
Vitamin D3 receptor = target: T1, Vitamin D3 receptor (Homo sapiens, UniProt P11473); test: Displacement of fluormone VDR red from human full length VDR after 4 hrs by fluorescence polarization assay
T1 sequence (P11473 whole entry): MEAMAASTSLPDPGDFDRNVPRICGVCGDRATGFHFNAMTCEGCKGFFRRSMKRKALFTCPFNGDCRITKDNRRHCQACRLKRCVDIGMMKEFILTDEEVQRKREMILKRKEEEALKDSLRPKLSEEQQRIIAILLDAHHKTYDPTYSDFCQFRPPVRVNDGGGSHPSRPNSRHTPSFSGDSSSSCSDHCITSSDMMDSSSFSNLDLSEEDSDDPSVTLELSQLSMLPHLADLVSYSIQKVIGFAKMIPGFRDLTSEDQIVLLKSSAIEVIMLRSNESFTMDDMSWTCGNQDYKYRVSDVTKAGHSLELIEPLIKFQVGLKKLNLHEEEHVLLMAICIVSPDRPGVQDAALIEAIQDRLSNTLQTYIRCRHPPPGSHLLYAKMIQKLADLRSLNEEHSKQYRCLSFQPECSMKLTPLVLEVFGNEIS

SMILES	IC50 (MCF7 [1])	IC50 (L02)	IC50 (PC-3)	IC50 (Caco-2)	IC50 (HepG2)	Activity (MCF7 [2])	Activity (MCF7 [3])	Activity (MCF7 [4])	Activity (MCF7 [5])	viability at 1 µM (MCF7 [6])	Activity (MCF7 [7])	Activity (MCF7 [8])	IC50 (Vitamin D3 receptor)
CCn1c(C(=O)NCCN(C)C)ccc1C(CC)(CC)c1ccc(OCCC(O)(CC)CC)c(C)c1	0.43 µM	0.99 µM	0.87 µM	1.14 µM	0.24 µM								
CCn1c(C(=O)NC(CO)CCO)ccc1C(CC)(CC)c1ccc(OCCC(O)(CC)CC)c(C)c1 (stereo not drawn)	31.4 µM	3.04 µM	8.76 µM	40.2 µM	24.8 µM								
Cc1cc(C2(c3ccc(OCC(=O)C(C)(C)C)c(C)c3)CCCCC2)ccc1OCC(=O)C(C)(C)C						2.53%	8.2%	0.33%	28.85%	88.9%	59.74%	11.41%	
CCn1c(C(=O)NC(C)C(=O)O)ccc1C(CC)(CC)c1ccc(OCCC(O)(CC)CC)c(C)c1 (stereo not drawn)	19.7 µM	4.04 µM	11.7 µM	46.5 µM	1.74 µM								
CCOc1ccc(NC(=O)c2ccc(C(CC)(CC)c3ccc(OCCC(O)(CC)CC)c(C)c3)n2CC)cc1	> 50 µM	> 50 µM	> 50 µM	> 50 µM	> 50 µM								4.54 µM
CCn1c(C(=O)NCCN)ccc1C(CC)(CC)c1ccc(OCCC(O)(CC)CC)c(C)c1	0.67 µM	2.94 µM	2.42 µM	1.74 µM	1.59 µM								
